Measurements as given in ChEMBL document CHEMBL5120857, “Rational design, synthesis and biological evaluation of dual PARP-1/2 and TNKS1/2 inhibitors for cancer therapy” (Eur J Med Chem, 2022).
Activity calls are given as the source filed them. The rule behind the calls is not given here.

Assays:
[1] = tested on: MDA-MB-231; test: Antiproliferative activity against human MDA-MB-231 cells assessed as inhibition of cell growth incubated for 7 days by MTT assay; type: functional, cell-based; conditions: MDA-MB-231, 168 h
[2] = tested on: MDA-MB-468; test: Antiproliferative activity against human MDA-MB-468 cells assessed as inhibition of cell growth incubated for 7 days by MTT assay; type: functional, cell-based; conditions: MDA-MB-468, 168 h
[3] = Cytotoxicity against mouse AML12 cells assessed as reduction in cell viability incubated for 7 days by MTT assay; type: toxicity, cell-based; conditions: time 7 day
[4] = tested on: HCT-116; test: Inhibition of Wnt/beta-Catenin signaling in human HCT-116 cells assessed as increase in axin2 levels at 10 uM by Western blot analysis; type: cell-based
[5] = tested on: HCT-116; test: Inhibition of Wnt/beta-Catenin signaling in human HCT-116 cells assessed as decrease in active beta-catenin levels at 10 uM by Western blot analysis; type: cell-based
[6] = tested on: HCT-116; test: Inhibition of Wnt/beta-Catenin signaling in human HCT-116 cells assessed as decrease in cyclin D1 levels at 10 uM by Western blot analysis; type: cell-based
[7] = tested on: HCT-116; test: Downregulation of BRCA1 protein expression in human HCT-116 cells at 1 uM by Western blot analysis; type: functional, cell-based
[8] = tested on: HCT-116; test: Induction of apoptosis in human HCT-116 cells assessed as viable cells at 5 uM incubated for 3 days by annexinV-FITC/propidium iodide staining based flow cytometry (reference value: 60.0 %); type: functional; conditions: Homo sapiens, HCT-116, 72 h, time 3 day, read-out: Activity
[9] = tested on: HCT-116; test: Induction of apoptosis in human HCT-116 cells assessed as early apoptotic cells at 5 uM incubated for 3 days by annexinV-FITC/propidium iodide staining based flow cytometry (reference value: 7.67 %); type: functional; conditions: time 3 day
[10] = tested on: HCT-116; test: Induction of apoptosis in human HCT-116 cells assessed as necrotic cells at 5 uM incubated for 3 days by annexinV-FITC/propidium iodide staining based flow cytometry (reference value: 3.65 %); type: functional; conditions: time 3 day
[11] = tested on: HCT-116; test: Induction of apoptosis in human HCT-116 cells assessed as viable cells at 1 uM incubated for 3 days by annexinV-FITC/propidium iodide staining based flow cytometry (reference value: 60.0 %); type: functional; conditions: HCT-116, 72 h, time 3 day, read-out: Activity
[12] = tested on: HCT-116; test: Induction of apoptosis in human HCT-116 cells assessed as late apoptotic cells at 1 uM incubated for 3 days by annexinV-FITC/propidium iodide staining based flow cytometry (reference value: 8.71 %); type: functional; conditions: time 3 day
[13] = tested on: HCT-116; test: Induction of cell cycle arrest in human HCT-116 cells assessed as G0/G1 phase cells at 5 uM incubated for 3 days by propidium iodide staining based flow cytometry (reference value: 68.35 %); type: functional; conditions: time 3 day
[14] = tested on: HCT-116; test: Induction of cell cycle arrest in human HCT-116 cells assessed as S phase cells at 5 uM incubated for 3 days by propidium iodide staining based flow cytometry (reference value: 11.26 %); type: functional; conditions: time 3 day
[15] = tested on: HCT-116; test: Induction of cell cycle arrest in human HCT-116 cells assessed as G2/M phase cells at 1 uM incubated for 3 days by propidium iodide staining based flow cytometry (reference value: 68.35 %); type: functional; conditions: time 3 day
[16] = biological target: Poly [ADP-ribose] polymerase 2 (Homo sapiens, UniProt Q9UGN5); test: Inhibition of PAPR-2 (unknown origin)
Poly [ADP-ribose] polymerase 2, sequence (Q9UGN5 whole entry): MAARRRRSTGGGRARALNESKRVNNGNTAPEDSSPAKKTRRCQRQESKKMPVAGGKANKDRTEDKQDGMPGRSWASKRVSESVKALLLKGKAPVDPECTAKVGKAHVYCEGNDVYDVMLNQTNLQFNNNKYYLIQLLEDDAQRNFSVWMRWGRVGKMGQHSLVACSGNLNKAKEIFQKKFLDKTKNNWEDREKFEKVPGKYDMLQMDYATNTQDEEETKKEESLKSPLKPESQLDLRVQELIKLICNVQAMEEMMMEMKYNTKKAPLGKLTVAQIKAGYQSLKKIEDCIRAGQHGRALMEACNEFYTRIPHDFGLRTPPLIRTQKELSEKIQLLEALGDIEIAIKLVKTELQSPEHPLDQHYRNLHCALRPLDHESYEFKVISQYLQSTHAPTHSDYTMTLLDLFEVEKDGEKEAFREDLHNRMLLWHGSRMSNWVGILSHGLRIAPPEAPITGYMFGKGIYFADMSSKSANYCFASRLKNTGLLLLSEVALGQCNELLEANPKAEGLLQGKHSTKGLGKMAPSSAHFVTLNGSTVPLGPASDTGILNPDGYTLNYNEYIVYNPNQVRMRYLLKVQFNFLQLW

[17] = biological target: T1, Protein mono-ADP-ribosyltransferase PARP10 (Homo sapiens, UniProt Q53GL7); test: Inhibition of PARP-10 (unknown origin)
T1 sequence (Q53GL7 whole entry): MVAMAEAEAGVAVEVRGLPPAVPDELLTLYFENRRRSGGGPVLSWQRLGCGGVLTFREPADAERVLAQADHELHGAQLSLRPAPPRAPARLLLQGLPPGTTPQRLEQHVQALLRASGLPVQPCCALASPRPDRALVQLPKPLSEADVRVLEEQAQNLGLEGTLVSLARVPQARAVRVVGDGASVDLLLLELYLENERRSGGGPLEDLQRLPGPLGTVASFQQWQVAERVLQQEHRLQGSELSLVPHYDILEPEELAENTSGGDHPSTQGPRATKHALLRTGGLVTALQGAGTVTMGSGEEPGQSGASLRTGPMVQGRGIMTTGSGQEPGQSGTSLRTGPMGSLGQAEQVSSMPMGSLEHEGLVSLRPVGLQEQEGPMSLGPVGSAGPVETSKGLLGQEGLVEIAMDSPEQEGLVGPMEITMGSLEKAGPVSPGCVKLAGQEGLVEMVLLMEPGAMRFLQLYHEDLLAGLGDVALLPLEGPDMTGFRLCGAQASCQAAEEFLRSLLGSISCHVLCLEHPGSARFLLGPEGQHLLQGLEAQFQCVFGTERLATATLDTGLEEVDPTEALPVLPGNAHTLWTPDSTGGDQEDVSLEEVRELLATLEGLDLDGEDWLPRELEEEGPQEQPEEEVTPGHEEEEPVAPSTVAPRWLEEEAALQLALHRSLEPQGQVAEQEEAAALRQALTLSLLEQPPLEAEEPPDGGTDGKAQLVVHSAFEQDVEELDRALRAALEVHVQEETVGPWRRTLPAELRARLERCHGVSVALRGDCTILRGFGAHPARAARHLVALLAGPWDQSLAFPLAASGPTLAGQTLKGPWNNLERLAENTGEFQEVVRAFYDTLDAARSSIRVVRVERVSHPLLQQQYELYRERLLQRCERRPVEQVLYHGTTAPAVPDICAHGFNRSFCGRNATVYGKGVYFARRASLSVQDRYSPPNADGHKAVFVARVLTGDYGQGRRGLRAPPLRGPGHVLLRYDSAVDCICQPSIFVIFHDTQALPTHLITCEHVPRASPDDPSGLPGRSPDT

[18] = biological target: Protein mono-ADP-ribosyltransferase PARP14 (Homo sapiens, UniProt Q460N5); test: Inhibition of PARP-14 (unknown origin)
Protein mono-ADP-ribosyltransferase PARP14, sequence (Q460N5 whole entry): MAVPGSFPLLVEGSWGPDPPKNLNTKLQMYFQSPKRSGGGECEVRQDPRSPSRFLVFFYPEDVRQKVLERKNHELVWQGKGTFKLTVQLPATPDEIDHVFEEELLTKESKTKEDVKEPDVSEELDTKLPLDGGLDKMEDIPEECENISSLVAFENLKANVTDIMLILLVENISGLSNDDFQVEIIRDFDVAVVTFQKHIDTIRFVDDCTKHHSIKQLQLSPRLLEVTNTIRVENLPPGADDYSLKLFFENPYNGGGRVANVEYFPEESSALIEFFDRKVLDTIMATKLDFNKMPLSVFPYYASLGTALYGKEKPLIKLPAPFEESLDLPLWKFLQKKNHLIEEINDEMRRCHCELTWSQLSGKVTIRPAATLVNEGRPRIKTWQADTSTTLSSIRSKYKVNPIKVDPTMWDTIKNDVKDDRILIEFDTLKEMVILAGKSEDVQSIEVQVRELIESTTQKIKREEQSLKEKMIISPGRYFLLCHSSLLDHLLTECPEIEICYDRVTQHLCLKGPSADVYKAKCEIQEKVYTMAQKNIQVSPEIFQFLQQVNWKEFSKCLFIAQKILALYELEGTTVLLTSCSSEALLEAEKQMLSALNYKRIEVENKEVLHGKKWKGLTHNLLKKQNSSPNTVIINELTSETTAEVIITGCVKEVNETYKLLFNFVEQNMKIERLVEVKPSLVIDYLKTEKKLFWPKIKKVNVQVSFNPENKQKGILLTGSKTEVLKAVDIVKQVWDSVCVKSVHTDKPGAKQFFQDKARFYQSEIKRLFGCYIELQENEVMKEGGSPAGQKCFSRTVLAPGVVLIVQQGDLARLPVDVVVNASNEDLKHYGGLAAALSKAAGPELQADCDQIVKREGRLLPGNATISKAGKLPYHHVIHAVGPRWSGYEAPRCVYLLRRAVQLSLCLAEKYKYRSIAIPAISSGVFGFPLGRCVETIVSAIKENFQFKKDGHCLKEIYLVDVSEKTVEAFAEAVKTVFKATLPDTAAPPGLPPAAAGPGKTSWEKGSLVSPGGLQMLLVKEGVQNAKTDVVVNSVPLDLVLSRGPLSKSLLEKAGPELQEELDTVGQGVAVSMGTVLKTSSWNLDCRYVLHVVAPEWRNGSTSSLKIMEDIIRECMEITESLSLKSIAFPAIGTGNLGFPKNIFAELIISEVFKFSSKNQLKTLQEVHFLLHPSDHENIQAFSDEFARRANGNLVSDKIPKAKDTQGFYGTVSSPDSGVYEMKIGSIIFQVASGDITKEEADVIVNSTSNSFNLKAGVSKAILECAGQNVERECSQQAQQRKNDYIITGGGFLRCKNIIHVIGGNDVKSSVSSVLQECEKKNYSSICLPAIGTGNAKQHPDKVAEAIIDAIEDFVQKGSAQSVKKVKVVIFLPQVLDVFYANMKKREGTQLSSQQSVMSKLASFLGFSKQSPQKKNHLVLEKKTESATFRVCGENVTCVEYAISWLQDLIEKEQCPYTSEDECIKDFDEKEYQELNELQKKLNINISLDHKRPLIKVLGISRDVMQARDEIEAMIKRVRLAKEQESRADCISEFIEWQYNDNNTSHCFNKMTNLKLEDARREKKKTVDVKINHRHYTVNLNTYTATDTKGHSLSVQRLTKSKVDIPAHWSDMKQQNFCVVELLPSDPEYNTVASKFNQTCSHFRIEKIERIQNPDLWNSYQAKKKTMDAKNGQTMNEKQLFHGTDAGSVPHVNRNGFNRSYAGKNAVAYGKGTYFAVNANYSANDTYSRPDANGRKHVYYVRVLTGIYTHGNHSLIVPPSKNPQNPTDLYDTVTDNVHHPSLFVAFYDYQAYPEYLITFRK

[19] = Half-life in Sprague-Dawley rat at 10 mg/kg, po or 1 mg/kg, iv; type: ADME, organism-based; conditions: in vivo
[20] = Toxicity in […] assessed as effect on body weight at 500 mg/kg, ip administered as single dose and measured on day 2 (reference value: 23.25 +/- 2.22 g); type: organism-based; conditions: in vivo
[21] = Toxicity in […] assessed as effect on body weight at 500 mg/kg, ip administered as single dose and measured on day 7 (reference value: 26.00 +/- 3.16 g); type: organism-based; conditions: in vivo
[22] = Toxicity in […] assessed as morphological changes in duodenum at 500 mg/kg, ip by H&E staining based histopathological analysis; type: organism-based; conditions: in vivo
[23] = Toxicity in […] assessed as morphological changes in colon at 500 mg/kg, ip by H&E staining based histopathological analysis; type: organism-based; conditions: in vivo
[24] = Toxicity in BALB/c nude mouse xenografted with human HCT116 cells at 25 to 100 mg/kg, ip administered once daily for 28 days; type: organism-based, HCT-116; conditions: in vivo, 672 h, dose 25-100 mg/kg, time 28 day
[25] = Toxicity in BALB/c nude mouse xenografted with human HCT116 cells assessed as side effects at 25 to 100 mg/kg, ip administered once daily for 28 days; type: organism-based, HCT-116; conditions: in vivo, 672 h, dose 25-100 mg/kg, time 28 day

SMILES: COc1ccc(NC(=O)c2ccc(NC(=O)N3CCN(C(=O)c4cc(Cc5n[nH]c(=O)c6ccccc56)ccc4F)CC3)cc2)cc1
- IC50 [1]: 870 nM
- IC50 [2]: 90 nM
- CC50 at 168 h [3]: 117000 nM
- inhibition [4]: Active
- inhibition [5]: Active
- inhibition [6]: Active
- Activity [7]: Active
- viability at 5 µM [8]: 45.1%
- Activity [9]: 6.61%
- Activity [10]: 8.56%
- viability at 1 µM [11]: 71.3%
- Activity [12]: 15.3%
- Activity [13]: 41.21%
- Activity [14]: 4.19%
- Activity [15]: 31.42%
- IC50 [16]: 1.2 nM
- IC50 [17]: 140 nM
- IC50 [18]: 1370 nM
- half-life [19]: 1.73 h
- Activity [20]: 20.75 g
- Activity [21]: 24.25 g
- Activity [22]: Non-Toxic
- Activity [23]: Non-Toxic
- Activity [24]: Non-Toxic
- Activity [25]: Non-Toxic
